Data: US20090062294A1, “HETEROARYL-SUBSTITUTED UREA MODULATORS OF FATTY ACID AMIDE HYDROLASE” (priority 2007, published 2009)
pIC50: −log10 of the molar value.

Assays:
FAAH = biological target: T1, FAAH (Homo sapiens, UniProt O00519); test: Assay Method 1: FAAH assay, 3H-anandamide hydrolysis in homogenate of T84 cells or SK-N-MC cells transfected with human FAAH; assay type: biochemical; conditions: average of results, > = solubility limit or highest concentration tested
T1 sequence (O00519 1-579): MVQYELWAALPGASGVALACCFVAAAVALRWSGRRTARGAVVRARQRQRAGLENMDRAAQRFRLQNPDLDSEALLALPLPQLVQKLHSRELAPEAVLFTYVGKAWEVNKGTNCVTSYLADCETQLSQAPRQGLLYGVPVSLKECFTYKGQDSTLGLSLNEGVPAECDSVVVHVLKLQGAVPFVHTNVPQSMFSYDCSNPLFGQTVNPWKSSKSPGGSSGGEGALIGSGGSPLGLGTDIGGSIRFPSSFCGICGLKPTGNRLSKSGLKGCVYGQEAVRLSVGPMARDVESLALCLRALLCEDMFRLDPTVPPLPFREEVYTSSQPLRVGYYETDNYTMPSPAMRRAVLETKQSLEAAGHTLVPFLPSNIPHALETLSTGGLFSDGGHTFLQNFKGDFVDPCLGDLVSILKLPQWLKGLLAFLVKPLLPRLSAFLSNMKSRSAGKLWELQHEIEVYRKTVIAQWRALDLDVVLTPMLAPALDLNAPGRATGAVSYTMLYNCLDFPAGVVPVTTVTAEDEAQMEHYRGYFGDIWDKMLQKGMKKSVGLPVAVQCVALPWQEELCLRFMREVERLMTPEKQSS
Method in brief: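 Hydrolysis of ^3H-anandamide (80 nM final, added last) was measured over 1 h at rt, using test compound with homogenate of T84 cells or human FAAH-transfected SK-N-MC cells. The homogenization buffer was 125 mM Tris, 1 mM EDTA, 0.02% Triton X-100, pH 9. Unbound labelled ethanolamine was passed through charcoal filters and scintillation-counted.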

rat FAAH = biological target: T2, rat FAAH (Rattus norvegicus, UniProt P97612); test: Assay Method 2: FAAH assay, 3H-anandamide hydrolysis in homogenate of SK-N-MC cells transfected with rat FAAH; assay type: biochemical; conditions: average of results, > = solubility limit or highest concentration tested
T2 sequence (P97612 1-579): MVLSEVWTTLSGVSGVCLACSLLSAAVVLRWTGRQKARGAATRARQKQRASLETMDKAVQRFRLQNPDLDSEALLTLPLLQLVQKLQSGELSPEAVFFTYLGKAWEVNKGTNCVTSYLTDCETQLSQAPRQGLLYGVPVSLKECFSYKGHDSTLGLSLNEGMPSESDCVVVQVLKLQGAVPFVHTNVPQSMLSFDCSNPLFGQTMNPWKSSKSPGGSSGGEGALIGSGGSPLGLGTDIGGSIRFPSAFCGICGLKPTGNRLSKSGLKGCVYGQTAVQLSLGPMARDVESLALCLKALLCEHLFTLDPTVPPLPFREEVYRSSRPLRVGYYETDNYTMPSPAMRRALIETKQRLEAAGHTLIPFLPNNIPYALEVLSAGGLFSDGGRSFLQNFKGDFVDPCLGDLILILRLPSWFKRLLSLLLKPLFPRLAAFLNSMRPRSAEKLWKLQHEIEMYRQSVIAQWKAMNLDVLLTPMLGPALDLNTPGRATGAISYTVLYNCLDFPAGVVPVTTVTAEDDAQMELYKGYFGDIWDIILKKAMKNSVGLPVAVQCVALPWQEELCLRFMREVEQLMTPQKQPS
Method in brief: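 Read-out is scintillation counting of [3H]-ethanolamine passing through activated charcoal, after 1 h at rt with 80 nM final [3H]-AEA. Enzyme source: lysate of G418-selected SK-N-MC clones expressing rat FAAH, homogenized in Tris/EDTA/glycerol/0.02% Triton buffer, pH 9.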

Structure (SMILES)	pIC50 (FAAH)	pIC50 (rat FAAH)
O=C(Nc1ccon1)N1CCN(Cc2cccc(Oc3ccc(OCC(F)(F)F)cc3)c2)CC1 [Example 137, N-Isoxazol-3-yl-4-{3-[4-(2,2,2-trifluoroethoxy)phenoxy]benzyl}piperazine-1-carboxamide]	7.22	6.44
O=C(Nc1ccon1)N1CCN(Cc2cc3ccccc3o2)CC1 [Example 138, 4-(1-Benzofuran-2-ylmethyl)-N-isoxazol-3-ylpiperazine-1-carboxamide]	5.30	< 5.00
N#Cc1cccc(Oc2cccc(CN3CCN(C(=O)Nc4ccon4)CC3)c2)c1 [Example 139, 4-[3-(3-Cyanophenoxy)benzyl]-N-isoxazol-3-ylpiperazine-1-carboxamide]	6.07	< 5.00
O=C(Nc1ccon1)N1CCN(Cc2cccc(Oc3ccccc3Cl)c2)CC1 [Example 140, 4-[3-(2-Chlorophenoxy)benzyl]-N-isoxazol-3-ylpiperazine-1-carboxamide]	6.15	5.22
O=C(Nc1ccon1)N1CCN(Cc2cccc(Oc3ccc4c(c3)OC(F)(F)O4)c2)CC1 [Example 141, 4-{3-[(2,2-Difluoro-1,3-benzodioxol-5-yl)oxy]benzyl}-N-isoxazol-3-ylpiperazine-1-carboxamide]	7.30	6.06
O=C(Nc1ccon1)N1CCN(Cc2ccc3c(c2)OCO3)CC1 [Example 143, 4-(1,3-Benzodioxol-5-ylmethyl)-N-isoxazol-3-ylpiperazine-1-carboxamide]	< 5.00	< 5.00
O=C(Nc1ccon1)N1CCN(Cc2ccc3ccccc3c2)CC1 [Example 144, N-Isoxazol-3-yl-4-(naphthalen-2-ylmethyl)piperazine-1-carboxamide]	6.46	5.52
O=C(Nc1ccon1)N1CCN(Cc2cccc(Oc3ccc(Br)cc3)c2)CC1 [Example 145, 4-[3-(4-Bromophenoxy)benzyl]-N-isoxazol-3-ylpiperazine-1-carboxamide]	7.80	6.37
O=C(Nc1ccon1)N1CCN(Cc2ccc(Br)cc2)CC1 [Example 148, 4-(4-Bromo-benzyl)-piperazine-1-carboxylic acid isoxazol-3-ylamide]	5.30	< 5.00
O=C(Nc1ccon1)N1CCN(Cc2cccc(Oc3ccc4ccccc4c3)c2)CC1 [Example 150, 4-[3-(Naphthalen-2-yloxy)-benzyl]-piperazine-1-carboxylic acid isoxazol-3-ylamide]	6.40	5.92
O=C(Nc1ccon1)N1CCN(Cc2ccc(Br)c(F)c2)CC1 [Example 151, 4-(4-Bromo-3-fluoro-benzyl)-piperazine-1-carboxylic acid isoxazol-3-ylamide]	5.52	5.22
N#Cc1ccc(Oc2cccc(CN3CCN(C(=O)Nc4ccon4)CC3)c2)cc1 [Example 152, 4-[3-(4-Cyano-phenoxy)-benzyl]-piperazine-1-carboxylic acid isoxazol-3-ylamide]	6.48	5.30
O=C(Nc1ccon1)N1CCN(Cc2cccc(Oc3ccc(F)c(F)c3)c2)CC1 [Example 153, 4-[3-(3,4-Difluorophenoxy)benzyl]-N-isoxazol-3-ylpiperazine-1-carboxamide]	6.34	5.10
O=C(Nc1ccon1)N1CCN(Cc2cccc(Oc3ccc(SC(F)(F)F)cc3)c2)CC1 [Example 155, N-Isoxazol-3-yl-4-(3-{4-[(trifluoromethyl)sulfanyl]phenoxy}benzyl)-piperazine-1-carboxamide]	7.70	6.57
O=C(Nc1ccon1)N1CCN(Cc2cccc(Oc3ccc(F)c(C(F)(F)F)c3)c2)CC1 [Example 156, 4-{3-[4-Fluoro-3-(trifluoromethyl)phenoxy]benzyl}-N-isoxazol-3-ylpiperazine-1-carboxamide]	7.37	5.30

Continued, values first:

pIC50 (FAAH)	pIC50 (rat FAAH)	Structure (SMILES)
7.10	6.44	O=C(Nc1ccon1)N1CCN(Cc2cccc(Oc3cccc(Br)c3)c2)CC1 [Example 157, 4-[3-(3-Bromophenoxy)benzyl]-N-isoxazol-3-ylpiperazine-1-carboxamide]
8.00	6.82	O=C(Nc1ccon1)N1CCN(Cc2cccc(Oc3ccc(S(=O)(=O)C(F)(F)F)cc3)c2)CC1 [Example 158, N-Isoxazol-3-yl-4-(3-{4-[(trifluoromethyl)sulfonyl]phenoxy}benzyl)-piperazine-1-carboxamide]
7.30	6.52	O=C(Nc1ccon1)N1CCN(Cc2cccc(Oc3cccc(OC(F)(F)F)c3)c2)CC1 [Example 159, N-Isoxazol-3-yl-4-{3-[3-(trifluoromethoxy)phenoxy]benzyl}piperazine-1-carboxamide]
5.52	5.10	O=C(Nc1ccon1)N1CCN(Cc2ccc(Cl)c(Cl)c2)CC1 [Example 160, 4-(3,4-Dichlorobenzyl)-N-isoxazol-3-ylpiperazine-1-carboxamide]
8.40	6.80	O=C(Nc1ccon1)N1CCN(Cc2cccc(Oc3ccc(C(F)(F)F)cc3)c2)CC1 [Example 161, N-isoxazol-3-yl-4-{3-[4-(trifluoromethyl)phenoxy]benzyl}piperazine-1-carboxamide]
6.62	5.19	O=C(Nc1ccon1)N1CCN(Cc2cccc(Oc3ccc4ncccc4c3)c2)CC1 [Example 162, N-Isoxazol-3-yl-4-[3-(quinolin-6-yloxy)benzyl]piperazine-1-carboxamide]
6.00	< 5.00	N#Cc1ccc(Oc2cccc(CN3CCN(C(=O)Nc4ccon4)CC3)c2)cc1C(F)(F)F [Example 163, 4-{3-[4-Cyano-3-(trifluoromethyl)phenoxy]benzyl}-N-isoxazol-3-ylpiperazine-1-carboxamide]
6.85	5.15	Cc1cc(NC(=O)N2CCN(Cc3cccc(Oc4ccc(Cl)cc4)c3)CC2)no1 [Example 164, 4-[3-(4-Chlorophenoxy)benzyl]-N-(5-methylisoxazol-3-yl)piperazine-1-carboxamide]
5.10	5.22	O=C(Nc1nnn[nH]1)N1CCN(Cc2cnc3ccccc3c2)CC1 [Example 165, 4-(Quinolin-3-ylmethyl)-N-1H-tetrazol-5-ylpiperazine-1-carboxamide]
7.89	8.15	O=C(Nc1nn[nH]n1)N1CCN(Cc2cccc(Oc3ccc4ccccc4c3)c2)CC1 [Example 166, 4-[3-(Naphthalen-2-yloxy)benzyl]-N-1H-tetrazol-5-ylpiperazine-1-carboxamide]
6.47	7.10	O=C(Nc1nn[nH]n1)N1CCN(Cc2ccc(Br)c(Br)c2)CC1 [Example 167, 4-(3,4-Dibromobenzyl)-N-1H-tetrazol-5-ylpiperazine-1-carboxamide]
5.92	6.32	O=C(Nc1nn[nH]n1)N1CCN(Cc2ccc(Br)c(F)c2)CC1 [Example 168, 4-(4-Bromo-3-fluorobenzyl)-N-1H-tetrazol-5-ylpiperazine-1-carboxamide]
6.21	6.22	O=C(Nc1nn[nH]n1)N1CCN(Cc2cccc(Oc3ccc(F)c(F)c3)c2)CC1 [Example 169, 4-[3-(3,4-Difluorophenoxy)benzyl]-N-1H-tetrazol-5-ylpiperazine-1-carboxamide]
